This is an account of results in article PMC4496089, “Screening for FtsZ Dimerization Inhibitors Using Fluorescence Cross-Correlation Spectroscopy and Surface Resonance Plasmon Analysis” (PLoS ONE, 2015).

Holding throughout (test): Antibiotic susceptibility test (broth microdilution MIC)
For orientation: In broth dilution the organism is exposed to a series of concentrations in liquid medium.

Experiment [1] has as its system S. aureus ATCC 29213 (MSSA). Format: cell-based, Staphylococcus aureus. Conditions: S. aureus ATCC 29213 (MSSA), CAMHB, 35°C, 16 to 20 hours. How it is done: (§1) Antimicrobial susceptibility testing was performed by broth microdilution in cation-adjusted Mueller–Hinton broth (CAMHB) according to the CLSI guidelines. Overnight culture was suspended in CAMHB, and the OD625 was measured using an Ultrospec 6300 pro spectrophotometer (GE Healthcare). The culture suspension was diluted to 0.01 of the OD625, and 5 μL of it was inoculated into test medium containing the test chemical. Then incubation was performed at 35°C for 16 to 20 hours. The final inoculum size corresponded to ca. 5 x 10^4 CFU per well, which corresponded to ca. 5 x 10^5 CFU/mL. The minimum inhibitory concentration (MIC) endpoint was defined as the lowest concentration of the test chemical that inhibited bacterial growth as detected by the unaided eye.

The subject of a further experiment is A. baumannii ATCC 19606. Format: cell-based. To be noted: Acinetobacter baumannii, ATCC19606; A. baumannii ATCC 19606; CAMHB, 35°C, 16 to 20 hours; read-out: Minimal inhibitory concentration. How it is done:
as §1

Another experiment relates to E. coli ATCC 25922. Format: cell-based. To be noted: Escherichia coli, ATCC25922; E. coli ATCC 25922; CAMHB, 35°C, 16 to 20 hours; read-out: Minimal inhibitory concentration. The protocol:
as §1

Another experiment deals with E. faecalis ATCC 29212. Format: cell-based. Conditions: Enterococcus faecalis, ATCC29212; E. faecalis ATCC 29212; CAMHB, 35°C, 16 to 20 hours; read-out: Minimal inhibitory concentration. How it is done: as §1
For the next experiment, the system named is E. faecalis SR7914 (VRE). Format: cell-based. To be noted: Enterococcus faecalis; E. faecalis SR7914 (VRE); CAMHB, 35°C, 16 to 20 hours; read-out: Minimal inhibitory concentration. How it is done: as §1
A further experiment relates to E. faecium ATCC 19434. Format: cell-based. Conditions: Enterococcus faecium, ATCC19434; E. faecium ATCC 19434; CAMHB, 35°C, 16 to 20 hours; read-out: Minimal inhibitory concentration. The protocol:
as §1

In a further experiment the test system is E. faecium SR7917 (VRE). Format: cell-based. To be noted: Enterococcus faecium; E. faecium SR7917 (VRE); CAMHB, 35°C, 16 to 20 hours; read-out: Minimal inhibitory concentration. The protocol:
as §1

The subject of the next experiment is H. influenzae ATCC 10211. Format: cell-based. To be noted: Haemophilus influenzae, ATCC10211; H. influenzae ATCC 10211; CAMHB, 35°C, 16 to 20 hours; read-out: Minimal inhibitory concentration. The protocol:
as §1

The test system of another experiment is K. pneumoniae ATCC 13883. Format: cell-based. To be noted: Klebsiella pneumoniae, ATCC13883; K. pneumoniae ATCC 13883; CAMHB, 35°C, 16 to 20 hours; read-out: Minimal inhibitory concentration. How it is done: as §1
In a further experiment the test system is P. aeruginosa ATCC 27853. Format: cell-based. To be noted: Pseudomonas aeruginosa, ATCC27853; P. aeruginosa ATCC 27853; CAMHB, 35°C, 16 to 20 hours; read-out: Minimal inhibitory concentration. How it is done: as §1
Another experiment concerns S. aureus SR3637 (MRSA). Format: cell-based. To be noted: Staphylococcus aureus; S. aureus SR3637 (MRSA); CAMHB, 35°C, 16 to 20 hours; read-out: Minimal inhibitory concentration. The protocol:
as §1

A further experiment has as its system S. pneumoniae Type I. Format: cell-based. Conditions: Streptococcus pneumoniae; S. pneumoniae Type I; CAMHB, 35°C, 16 to 20 hours; read-out: Minimal inhibitory concentration. The protocol: as §1

SMILES strings stand for the structures. Values after ≈ are worked out from the molar mass of the structure shown. A value given as a limit tells only on which side of the number the result lay.

For the compound `C[C@@H](O)[C@H]1C(=O)N2C(C(=O)O)=C(S[C@@H]3CN[C@H](CNS(N)(=O)=O)C3)[C@H](C)[C@H]12` [Doripenem, reference compound], the Minimal inhibitory concentration result in experiment [1] is listed as “≦0.063 μg/mL”. Moreover, the MIC was at most 0.063 µg/mL in experiment [1] (Staphylococcus aureus, read-out: Minimal inhibitory concentration); 1 µg/mL (≈ 2.38 µM) in the experiment with A. baumannii ATCC 19606; at most 0.063 µg/mL in the experiment on E. coli ATCC 25922; 1 µg/mL (≈ 2.38 µM) in the experiment on E. faecalis ATCC 29212; 8 µg/mL (≈ 19 µM) with E. faecalis SR7914 (VRE); 8 µg/mL (≈ 19 µM) with E. faecium ATCC 19434. The MIC with E. faecium SR7917 (VRE) is 64 µg/mL (≈ 152 µM); in the experiment on H. influenzae ATCC 10211 it was 0.125 µg/mL (≈ 0.297 µM); in the experiment with K. pneumoniae ATCC 13883, 0.125 µg/mL (≈ 0.297 µM); in the experiment on P. aeruginosa ATCC 27853, 0.5 µg/mL (≈ 1.19 µM); in the experiment with S. aureus SR3637 (MRSA), 16 µg/mL (≈ 38 µM); with S. pneumoniae Type I it was at most 0.063 µg/mL.
